Experimental data published in ChEMBL document CHEMBL3045777, “Response of selected horseweed (Conyza canadensis (L.) Cronq.) populations to glyphosate” (2004).

Assays:
[1] = test system: Erigeron canadensis; experiment: Herbicidal activity against compound-sensitive Conyza canadensis (horseweed) under greenhouse condition assessed as fresh weight at 0.84 kg ae/ha measured 21 days post treatment relative to untreated control
[2] = test system: Erigeron canadensis; experiment: Herbicidal activity against compound-sensitive Conyza canadensis (horseweed) under greenhouse condition at 3.36 kg ae/ha measured 14 days post treatment relative to control; assay type: functional
[3] = test system: Erigeron canadensis; experiment: Herbicidal activity against compound-resistant Conyza canadensis (horseweed) isolate 2 under greenhouse condition assessed as fresh weight at 0.84 kg ae/ha measured 21 days post treatment relative to untreated control
[4] = test system: Erigeron canadensis; experiment: Herbicidal activity against compound-sensitive Conyza canadensis (horseweed) under greenhouse condition at 2.52 kg ae/ha measured 7 days post treatment relative to control; assay type: functional
[5] = test system: Erigeron canadensis; experiment: Herbicidal activity against compound-resistant Conyza canadensis (horseweed) isolate 1 under greenhouse condition assessed as fresh weight at 1.68 kg ae/ha measured 21 days post treatment relative to untreated control
[6] = test system: Erigeron canadensis; experiment: Herbicidal activity against compound-resistant Conyza canadensis (horseweed) isolate 1 under greenhouse condition at 3.36 kg ae/ha measured 14 days post treatment relative to control; assay type: functional
[7] = test system: Erigeron canadensis; experiment: Herbicidal activity against compound-resistant Conyza canadensis (horseweed) isolate 2 under greenhouse condition at 2.52 kg ae/ha measured 14 days post treatment relative to control; assay type: functional
[8] = test system: Erigeron canadensis; experiment: Herbicidal activity against compound-sensitive Conyza canadensis (horseweed) under greenhouse condition at 1.68 kg ae/ha measured 7 days post treatment relative to control; assay type: functional
[9] = test system: Erigeron canadensis; experiment: Herbicidal activity against compound-resistant Conyza canadensis (horseweed) isolate 2 under greenhouse condition at 1.25 kg ae/ha measured 14 days post treatment relative to control; assay type: functional
[10] = test system: Erigeron canadensis; experiment: Herbicidal activity against compound-resistant Conyza canadensis (horseweed) isolate 2 under greenhouse condition assessed as fresh weight at 9 kg ae/ha measured 21 days post treatment relative to untreated control
[11] = test system: Erigeron canadensis; experiment: Herbicidal activity against compound-resistant Conyza canadensis (horseweed) isolate 1 under greenhouse condition at 3.36 kg ae/ha measured 21 days post treatment relative to control; assay type: functional
[12] = test system: Erigeron canadensis; experiment: Herbicidal activity against compound-resistant Conyza canadensis (horseweed) isolate 1 under greenhouse condition assessed as fresh weight at 0.45 kg ae/ha measured 21 days post treatment relative to untreated control
[13] = test system: Erigeron canadensis; experiment: Herbicidal activity against compound-resistant Conyza canadensis (horseweed) isolate 2 under greenhouse condition assessed as fresh weight at 3.36 kg ae/ha measured 21 days post treatment relative to untreated control
[14] = test system: Erigeron canadensis; experiment: Herbicidal activity against compound-resistant Conyza canadensis (horseweed) isolate 1 under greenhouse condition at 0.45 kg ae/ha measured 14 days post treatment relative to control; assay type: functional
[15] = test system: Erigeron canadensis; experiment: Herbicidal activity against compound-resistant Conyza canadensis (horseweed) isolate 1 under greenhouse condition at 1.68 kg ae/ha measured 7 days post treatment relative to control; assay type: functional
[16] = test system: Erigeron canadensis; experiment: Herbicidal activity against compound-resistant Conyza canadensis (horseweed) isolate 1 under greenhouse condition assessed as fresh weight at 9 kg ae/ha measured 21 days post treatment relative to untreated control
[17] = test system: Erigeron canadensis; experiment: Herbicidal activity against compound-resistant Conyza canadensis (horseweed) isolate 1 under greenhouse condition at 1.25 kg ae/ha measured 21 days post treatment relative to control; assay type: functional
[18] = test system: Erigeron canadensis; experiment: Herbicidal activity against compound-sensitive Conyza canadensis (horseweed) under greenhouse condition at 1.68 kg ae/ha measured 21 days post treatment relative to control; assay type: functional
[19] = test system: Erigeron canadensis; experiment: Herbicidal activity against compound-sensitive Conyza canadensis (horseweed) under greenhouse condition at 2.52 kg ae/ha measured 14 days post treatment relative to control; assay type: functional
[20] = test system: Erigeron canadensis; experiment: Herbicidal activity against compound-resistant Conyza canadensis (horseweed) isolate 2 under greenhouse condition assessed as fresh weight at 0.45 kg ae/ha measured 21 days post treatment relative to untreated control
[21] = test system: Erigeron canadensis; experiment: Herbicidal activity against compound-resistant Conyza canadensis (horseweed) isolate 2 under greenhouse condition at 1.25 kg ae/ha measured 21 days post treatment relative to control; assay type: functional
[22] = test system: Erigeron canadensis; experiment: Herbicidal activity against compound-resistant Conyza canadensis (horseweed) isolate 2 under greenhouse condition at 0.45 kg ae/ha measured 21 days post treatment relative to control; assay type: functional
[23] = test system: Erigeron canadensis; experiment: Herbicidal activity against compound-resistant Conyza canadensis (horseweed) isolate 1 under greenhouse condition at 9 kg ae/ha measured 21 days post treatment relative to control; assay type: functional
[24] = test system: Erigeron canadensis; experiment: Herbicidal activity against compound-resistant Conyza canadensis (horseweed) isolate 2 under greenhouse condition at 9 kg ae/ha measured 21 days post treatment relative to control; assay type: functional
[25] = test system: Erigeron canadensis; experiment: Herbicidal activity against compound-resistant Conyza canadensis (horseweed) isolate 2 under greenhouse condition at 0.45 kg ae/ha measured 14 days post treatment relative to control; assay type: functional
[26] = test system: Erigeron canadensis; experiment: Herbicidal activity against compound-resistant Conyza canadensis (horseweed) isolate 1 under greenhouse condition at 0.45 kg ae/ha measured 7 days post treatment relative to control; assay type: functional
[27] = test system: Erigeron canadensis; experiment: Herbicidal activity against compound-resistant Conyza canadensis (horseweed) isolate 1 under greenhouse condition at 2.52 kg ae/ha measured 21 days post treatment relative to control; assay type: functional
[28] = test system: Erigeron canadensis; experiment: Herbicidal activity against compound-resistant Conyza canadensis (horseweed) isolate 1 under greenhouse condition at 9 kg ae/ha measured 14 days post treatment relative to control; assay type: functional
[29] = test system: Erigeron canadensis; experiment: Herbicidal activity against compound-resistant Conyza canadensis (horseweed) isolate 1 under greenhouse condition assessed as fresh weight at 2.52 kg ae/ha measured 21 days post treatment relative to untreated control
[30] = test system: Erigeron canadensis; experiment: Herbicidal activity against compound-sensitive Conyza canadensis (horseweed) under greenhouse condition at 9 kg ae/ha measured 21 days post treatment relative to control; assay type: functional
[31] = test system: Erigeron canadensis; experiment: Herbicidal activity against compound-resistant Conyza canadensis (horseweed) isolate 1 under greenhouse condition at 0.45 kg ae/ha measured 21 days post treatment relative to control; assay type: functional
[32] = test system: Erigeron canadensis; experiment: Herbicidal activity against compound-sensitive Conyza canadensis (horseweed) under greenhouse condition at 0.45 kg ae/ha measured 21 days post treatment relative to control; assay type: functional
[33] = test system: Erigeron canadensis; experiment: Herbicidal activity against compound-sensitive Conyza canadensis (horseweed) under greenhouse condition at 3.36 kg ae/ha measured 21 days post treatment relative to control; assay type: functional
[34] = test system: Erigeron canadensis; experiment: Herbicidal activity against compound-resistant Conyza canadensis (horseweed) isolate 1 under greenhouse condition at 0.84 kg ae/ha measured 14 days post treatment relative to control; assay type: functional
[35] = test system: Erigeron canadensis; experiment: Herbicidal activity against compound-sensitive Conyza canadensis (horseweed) under greenhouse condition at 0.84 kg ae/ha measured 14 days post treatment relative to control; assay type: functional
[36] = test system: Erigeron canadensis; experiment: Herbicidal activity against compound-resistant Conyza canadensis (horseweed) isolate 2 under greenhouse condition at 0.84 kg ae/ha measured 7 days post treatment relative to control; assay type: functional

What does the source list for `O=C(O)CNCP(=O)(O)O` [GLYPHOSATE]?
level, % of control [1]: 27%; Activity [2]: 95%; level, % of control [3]: 86%; Activity [4]: 83%; level, % of control [5]: 36%; Activity [6]: 58%; Activity [7]: 50%; Activity [8]: 63%; Activity [9]: 15%; level, % of control [10]: 12%; Activity [11]: 75%; level, % of control [12]: 99%; level, % of control [13]: 18%; Activity [14]: 8%; Activity [15]: 40%; level, % of control [16]: 9%; Activity [17]: 30%; Activity [18]: 99%; Activity [19]: 99%; level, % of control [20]: 94%; Activity [21]: 25%; Activity [22]: 20%; Activity [23]: 80%; Activity [24]: 89%; Activity [25]: 13%; Activity [26]: 10%; Activity [27]: 59%; Activity [28]: 80%; level, % of control [29]: 25%; Activity [30]: 99%; Activity [31]: 11%; Activity [32]: 74%; Activity [33]: 99%; Activity [34]: 13%; Activity [35]: 63%; Activity [36]: 23%
